Assay results reported in patent publication US9260429B2, “Pyrido[3,4-B]indoles and methods of use” (Medivation Technologies, Inc., priority 2008, dated 2016).

Assays:
[1] = biological target: T1, human recombinant histamine H1 receptor (Homo sapiens, UniProt P35367); assay: Histamine H1 radioligand binding ([3H]Pyrilamine); conditions: 1 μM; read-out: Binding data (Percentage Inhibition) Histamine Binding (1 μM) H1
T1 construct: expressed in transfected cells; host or cells: CHO cells
Procedure, shortened: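 Binding to the human recombinant histamine H1 receptor, expressed in CHO cells, was measured in a modified Tris-HCl buffer (50 mM Tris-HCl, pH 7.4, 2 mM MgCl2, 100 mM NaCl, 250 mM Sucrose). Compounds were incubated with 1.2 nM [3H]Pyrilamine for 180 minutes at 25° C, with 1 μM pyrilamine defining non-specific binding. After filtration and washing, filter counts gave percent inhibition of specific binding.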

[2] = biological target: T2, human recombinant serotonin (5-Hydroxytryptamine) 5-HT6 receptor (Homo sapiens, UniProt P50406); assay: Serotonin 5-HT6 radioligand binding ([3H]LSD); conditions: 2 h; read-out: Percent Inhibition of ligand binding Serotonin (1 μM ligand concentration) 5-HT6
T2 construct: expressed in transfected cells; host or cells: human HeLa cells
T2 sequence (P50406 whole entry): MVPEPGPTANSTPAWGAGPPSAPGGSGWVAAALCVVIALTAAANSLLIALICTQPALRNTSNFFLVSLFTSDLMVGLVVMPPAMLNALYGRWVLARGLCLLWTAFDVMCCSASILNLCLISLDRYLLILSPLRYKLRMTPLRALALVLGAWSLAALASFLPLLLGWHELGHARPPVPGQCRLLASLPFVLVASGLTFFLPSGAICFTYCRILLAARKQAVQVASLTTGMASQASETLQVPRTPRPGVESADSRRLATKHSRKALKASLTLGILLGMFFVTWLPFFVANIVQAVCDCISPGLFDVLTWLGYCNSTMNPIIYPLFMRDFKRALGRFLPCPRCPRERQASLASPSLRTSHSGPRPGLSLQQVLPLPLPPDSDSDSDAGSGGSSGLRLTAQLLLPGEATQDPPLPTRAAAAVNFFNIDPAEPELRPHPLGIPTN
Procedure, shortened: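 Human 5-HT6 receptor expressed in HeLa cells, in Tris-HCl pH 7.4 with 150 mM NaCl, ascorbic acid and BSA. Compounds at 1 μM or lower (1% DMSO) incubated 120 min at 37° C with 1.5 nM [3H]LSD. Non-specific binding defined with serotonin; filter counting gives % inhibition of specific binding.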

[3] = biological target: T3, human recombinant histamine H2 receptor (Homo sapiens, UniProt P25021); assay: Histamine H2 radioligand binding ([125I]Aminopotentidine); conditions: 1 μM; inhibition of specific [125I]Aminopotentidine binding; read-out: Binding data (Percentage Inhibition) Histamine Binding (1 μM) H2
T3 construct: expressed in transfected cells; host or cells: CHO-K1 cells
T3 sequence (P25021 whole entry): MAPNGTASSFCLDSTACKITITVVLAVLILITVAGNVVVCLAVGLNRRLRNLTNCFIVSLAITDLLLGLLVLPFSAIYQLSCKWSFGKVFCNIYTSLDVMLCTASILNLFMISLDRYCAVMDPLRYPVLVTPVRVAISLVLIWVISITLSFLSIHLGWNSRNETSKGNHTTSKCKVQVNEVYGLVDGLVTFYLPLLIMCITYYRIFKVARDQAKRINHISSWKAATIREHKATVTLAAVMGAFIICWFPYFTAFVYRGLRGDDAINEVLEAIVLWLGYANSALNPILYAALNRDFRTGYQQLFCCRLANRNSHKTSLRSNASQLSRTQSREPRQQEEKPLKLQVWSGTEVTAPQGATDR
Procedure, shortened: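 Membranes of CHO-K1 cells expressing human H2 receptor incubated with 0.1 nM [125I]aminopotentidine, 120 min, 25 °C, 50 mM phosphate pH 7.4; nonspecific binding defined with 3 μM tiotidine.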

[4] = biological target: T4, human recombinant serotonin (5-Hydroxytryptamine) 5-HT2C receptor (Homo sapiens, UniProt P28335); assay: Serotonin 5-HT2C radioligand binding ([3H]Mesulergine); conditions: for inhibition at 1 µM: 1 h, read-out: Percent Inhibition of ligand binding Serotonin (1 μM ligand concentration) 5-HT2C
T4 construct: expressed in transfected cells; host or cells: CHO-K1 cells
T4 sequence (P28335 33-458): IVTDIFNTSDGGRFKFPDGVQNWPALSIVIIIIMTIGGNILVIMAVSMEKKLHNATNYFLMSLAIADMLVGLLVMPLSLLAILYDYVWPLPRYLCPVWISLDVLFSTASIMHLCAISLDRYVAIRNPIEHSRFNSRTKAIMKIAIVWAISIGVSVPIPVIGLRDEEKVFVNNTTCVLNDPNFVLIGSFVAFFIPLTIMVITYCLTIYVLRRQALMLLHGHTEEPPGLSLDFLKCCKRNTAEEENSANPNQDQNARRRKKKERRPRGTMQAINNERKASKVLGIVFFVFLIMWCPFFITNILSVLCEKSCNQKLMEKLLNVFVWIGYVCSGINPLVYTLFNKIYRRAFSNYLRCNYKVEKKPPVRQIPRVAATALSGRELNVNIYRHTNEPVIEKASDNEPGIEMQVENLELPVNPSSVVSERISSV
Experimental: Compounds of the invention were incubated with 1 nM [^3H]Mesulergine for 60 minutes at 25° C. Non-specific binding was estimated in the presence of 1 μM Mianserin. Receptor proteins were filtered and washed, the filters were then counted to determine [^3H]Mesulergine specifically bound. […] Biochemical assay results are presented as the percent inhibition of specific binding in Table 5.

[5] = biological target: T5, human recombinant serotonin (5-Hydroxytryptamine) 5-HT2A receptor (Homo sapiens, UniProt P28223); assay: Serotonin 5-HT2A radioligand binding ([3H]Ketanserin); conditions: 1 h; read-out: Percent Inhibition of ligand binding Serotonin (1 μM ligand concentration) 5-HT2A
T5 construct: expressed in transfected cells; host or cells: CHO-K1 cells
T5 sequence (P28223 whole entry): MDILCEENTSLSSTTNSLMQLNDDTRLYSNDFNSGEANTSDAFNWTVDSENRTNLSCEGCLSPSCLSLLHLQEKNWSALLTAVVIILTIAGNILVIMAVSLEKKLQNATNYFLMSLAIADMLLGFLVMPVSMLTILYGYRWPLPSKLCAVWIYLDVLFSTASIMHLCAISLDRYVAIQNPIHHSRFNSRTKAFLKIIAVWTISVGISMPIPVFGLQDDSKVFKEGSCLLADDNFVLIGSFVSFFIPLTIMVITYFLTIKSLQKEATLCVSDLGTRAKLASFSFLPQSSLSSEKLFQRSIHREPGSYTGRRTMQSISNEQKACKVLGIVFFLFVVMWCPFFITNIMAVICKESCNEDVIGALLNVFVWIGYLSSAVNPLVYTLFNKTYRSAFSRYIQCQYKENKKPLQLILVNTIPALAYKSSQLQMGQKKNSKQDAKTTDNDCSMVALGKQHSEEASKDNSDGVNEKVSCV
Procedure, shortened: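 Membranes from CHO-K1 cells expressing the receptor, in 50 mM Tris-HCl pH 7.4, incubated 60 min at 25° C with 0.5 nM [3H]Ketanserin; 1 μM Mianserin defines non-specific binding. Filtration and counting; values are % inhibition of specific binding at 1 μM or lower, 1% DMSO.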

[6] = biological target: T6, human recombinant dopamine D2L receptor (Homo sapiens, UniProt P14416); assay: Dopamine D2L radioligand binding ([3H]Spiperone); conditions: 2 h, 1 μM ligand conc.; read-out: Percent Inhibition of ligand binding Dopamine (1 μM ligand conc.) D2L
T6 construct: expressed in transfected cells; host or cells: CHO cells
T6 sequence (P14416 whole entry): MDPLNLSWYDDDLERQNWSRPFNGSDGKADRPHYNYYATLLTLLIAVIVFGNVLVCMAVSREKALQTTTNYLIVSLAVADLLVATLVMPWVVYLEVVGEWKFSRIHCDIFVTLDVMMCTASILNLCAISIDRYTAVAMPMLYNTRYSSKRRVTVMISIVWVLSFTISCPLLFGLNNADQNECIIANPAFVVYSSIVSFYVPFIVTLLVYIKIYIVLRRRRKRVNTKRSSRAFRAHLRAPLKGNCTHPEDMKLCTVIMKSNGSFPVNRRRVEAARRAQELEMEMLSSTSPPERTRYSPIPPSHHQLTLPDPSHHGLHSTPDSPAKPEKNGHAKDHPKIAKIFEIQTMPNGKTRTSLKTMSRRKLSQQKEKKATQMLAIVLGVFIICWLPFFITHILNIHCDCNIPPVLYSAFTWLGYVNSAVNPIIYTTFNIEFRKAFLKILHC
Procedure, shortened: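 CHO-expressed receptor in 50 mM Tris-HCl pH 7.4 with ascorbic acid, 0.001% BSA, 150 mM NaCl; 0.16 nM [3H]spiperone, 120 min at 25 °C; nonspecific binding with haloperidol.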

T1 sequence (P35367 whole entry): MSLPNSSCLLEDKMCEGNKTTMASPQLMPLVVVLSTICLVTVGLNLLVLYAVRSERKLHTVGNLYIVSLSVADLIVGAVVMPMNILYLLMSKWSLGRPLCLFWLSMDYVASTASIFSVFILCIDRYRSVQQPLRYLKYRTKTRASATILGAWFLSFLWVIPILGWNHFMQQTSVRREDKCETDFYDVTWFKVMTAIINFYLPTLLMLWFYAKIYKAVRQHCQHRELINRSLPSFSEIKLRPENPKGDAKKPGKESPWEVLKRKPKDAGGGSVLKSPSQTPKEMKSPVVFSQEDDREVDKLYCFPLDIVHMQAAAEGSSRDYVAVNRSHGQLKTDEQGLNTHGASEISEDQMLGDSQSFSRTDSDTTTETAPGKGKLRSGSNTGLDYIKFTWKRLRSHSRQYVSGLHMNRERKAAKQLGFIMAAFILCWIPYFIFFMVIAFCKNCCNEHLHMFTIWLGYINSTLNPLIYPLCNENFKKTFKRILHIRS

CN1CCc2c(n(CC(=O)O)c3ccc(Cl)cc23)C1 [Compound 52, 2-(6-chloro-1,2,3,4-tetrahydro-2-methylpyrido[3,4-b]indol-9-yl)acetic acid]
inhibition at 1 µM [1]: 3% | inhibition at 1 µM [2]: -4% | inhibition at 1 µM [3]: -5% | inhibition at 1 µM [4]: -4% | inhibition at 1 µM [5]: -11% | inhibition at 1 µM [6]: 1%

Cc1ccc2c(c1)c1c(n2CC(=O)O)CN(C)CC1 [Compound 53, 2-(1,2,3,4-tetrahydro-2,6-dimethylpyrido[3,4-b]indol-9-yl)acetic acid]
inhibition at 1 µM [1]: 5% | inhibition at 1 µM [2]: -8% | inhibition at 1 µM [3]: 0% | inhibition at 1 µM [4]: -3% | inhibition at 1 µM [5]: -6% | inhibition at 1 µM [6]: 6%

COC(=O)Cn1c2c(c3cc(Cl)ccc31)CCN(C)C2 [Compound 54, methyl 2-(6-chloro-2-methyl-3,4-dihydro-1H-pyrido[3,4-b]indol-9(2H)-yl)acetate]
inhibition at 1 µM [1]: 5% | inhibition at 1 µM [2]: 8% | inhibition at 1 µM [3]: 21% | Percent Inhibition of ligand binding Serotonin (1 μM ligand concentration) 5-HT2C ([4]; 1 μM ligand concentration): −1% | inhibition at 1 µM [5]: 0% | inhibition at 1 µM [6]: -16%

CN1CCc2c(n(CC(=O)N3CCNCC3)c3ccc(Cl)cc23)C1 [Compound 55, 2-(6-chloro-2-methyl-3,4-dihydro-1H-pyrido[3,4-b]indol-9(2H)-yl)-1-(piperazin-1-yl)ethanone]
inhibition at 1 µM [1]: 90% | inhibition at 1 µM [2]: 0% | inhibition at 1 µM [3]: 2% | inhibition at 1 µM [4]: 13% | inhibition at 1 µM [5]: 17% | inhibition at 1 µM [6]: -6%

Cc1ccc(CCCn2c3c(c4cc(Cl)ccc42)CCN(C)C3)cn1 [Compound 56, 6-chloro-2-methyl-9-(3-(6-methylpyridin-3-yl)propyl)-2,3,4,9-tetrahydro-1H-pyrido[3,4-b]indole]
inhibition at 1 µM [1]: 30% | inhibition at 1 µM [2]: -3% | inhibition at 1 µM [3]: 20% | inhibition at 1 µM [4]: -3% | inhibition at 1 µM [5]: 12% | inhibition at 1 µM [6]: 9%

Cc1ccc2c(c1)c1c(n2CC(=O)N2CCCCC2)CN(C)CC1 [Compound 57, 2-(2,6-dimethyl-3,4-dihydro-1H-pyrido[3,4-b]indol-9(2H)-yl)-1-(piperidin-1-yl)ethanone]
inhibition at 1 µM [1]: 0% | inhibition at 1 µM [2]: 6% | inhibition at 1 µM [3]: 10% | inhibition at 1 µM [4]: 14% | inhibition at 1 µM [5]: 28% | inhibition at 1 µM [6]: 6%

CN1CCc2c(n(CC(=O)N3CCCCC3)c3ccc(Cl)cc23)C1 [Compound 58, 2-(6-chloro-2-methyl-3,4-dihydro-1H-pyrido[3,4-b]indol-9(2H)-yl)-1-(piperidin-1-yl)ethanone]
inhibition at 1 µM [1]: 2% | inhibition at 1 µM [2]: -7% | inhibition at 1 µM [3]: 11% | inhibition at 1 µM [4]: 30% | inhibition at 1 µM [5]: -10% | inhibition at 1 µM [6]: -5%

CN1CCc2c(n(CC(O)c3ccccc3F)c3ccc(Cl)cc23)C1 (stereo not drawn) [Compound 59, 2-(6-chloro-2-methyl-3,4-dihydro-1H-pyrido[3,4-b]indol-9(2H)-yl)-1-(2-fluorophenyl)ethanol]
inhibition at 1 µM [1]: 13% | inhibition at 1 µM [2]: 60% | inhibition at 1 µM [3]: 28% | inhibition at 1 µM [4]: 74% | inhibition at 1 µM [5]: 80% | inhibition at 1 µM [6]: 35%

Cc1ccc2c(c1)c1c(n2CC(O)c2ccccc2F)CN(C)CC1 (stereo not drawn) [Compound 60, 2-(2,6-dimethyl-3,4-dihydro-1H-pyrido[3,4-b]indol-9(2H)-yl)-1-(2-fluorophenyl)ethanol]
inhibition at 1 µM [1]: 19% | inhibition at 1 µM [2]: 62% | inhibition at 1 µM [3]: 15% | inhibition at 1 µM [4]: 5% | inhibition at 1 µM [5]: 74% | inhibition at 1 µM [6]: 18%

Cc1ccc2c(c1)c1c(n2CC(C)(O)c2ccc(F)cc2)CN(C)CC1 (stereo not drawn) [Compound 61, 1-(2,6-dimethyl-3,4-dihydro-1H-pyrido[3,4-b]indol-9(2H)-yl)-2-(4-fluorophenyl)propan-2-ol]
inhibition at 1 µM [1]: 49% | inhibition at 1 µM [2]: 61% | inhibition at 1 µM [3]: 17% | inhibition at 1 µM [4]: 81% | inhibition at 1 µM [5]: 86% | inhibition at 1 µM [6]: 41%

CN1CCc2c(n(CC(C)(O)c3ccc(F)cc3)c3ccc(Cl)cc23)C1 (stereo not drawn) [Compound 62, 1-(6-chloro-2-methyl-3,4-dihydro-1H-pyrido[3,4-b]indol-9(2H)-yl)-2-(4-fluorophenyl)propan-2-ol]
inhibition at 1 µM [1]: 48% | inhibition at 1 µM [2]: 77% | inhibition at 1 µM [3]: 48% | inhibition at 1 µM [4]: 95% | inhibition at 1 µM [5]: 88% | inhibition at 1 µM [6]: 81%

COc1ccc(C(O)Cn2c3c(c4cc(C)ccc42)CCN(C)C3)cc1OC (stereo not drawn) [Compound 66]
inhibition at 1 µM [1]: 19% | inhibition at 1 µM [2]: 5% | inhibition at 1 µM [3]: 1% | inhibition at 1 µM [4]: 48% | inhibition at 1 µM [5]: 51% | inhibition at 1 µM [6]: 9%

Cc1ccc2c(c1)c1c(n2CC(O)c2ccccc2)CN(C)CC1 (stereo not drawn) [Compound 67]
inhibition at 1 µM [1]: 35% | inhibition at 1 µM [2]: 51% | inhibition at 1 µM [3]: 8% | inhibition at 1 µM [4]: 85% | inhibition at 1 µM [5]: 77% | inhibition at 1 µM [6]: 21%

COc1ccc(C(O)Cn2c3c(c4cc(Cl)ccc42)CCN(C)C3)cc1OC (stereo not drawn) [Compound 70]
inhibition at 1 µM [1]: 39% | inhibition at 1 µM [2]: 21% | inhibition at 1 µM [3]: 1% | inhibition at 1 µM [4]: 63% | inhibition at 1 µM [5]: 56% | inhibition at 1 µM [6]: 0%

CN1CCc2c(n(CC(O)c3ccccc3)c3ccc(Cl)cc23)C1 (stereo not drawn) [Compound 71]
inhibition at 1 µM [1]: 54% | inhibition at 1 µM [2]: 66% | inhibition at 1 µM [3]: 11% | inhibition at 1 µM [4]: 81% | inhibition at 1 µM [5]: 87% | inhibition at 1 µM [6]: 21%

Cc1ccc(C(O)Cn2c3c(c4cc(C)ccc42)CCN(C)C3)cc1 (stereo not drawn) [Compound 72]
inhibition at 1 µM [1]: 55% | inhibition at 1 µM [2]: 61% | inhibition at 1 µM [3]: 19% | inhibition at 1 µM [4]: 89% | inhibition at 1 µM [5]: 96% | inhibition at 1 µM [6]: 24%

CCC1c2c(c3cc(Cl)ccc3n2CCc2ccc(F)cc2)CCN1C (stereo not drawn) [Compound 78]
inhibition at 1 µM [1]: 71% | inhibition at 1 µM [2]: 48% | inhibition at 1 µM [3]: 33% | inhibition at 1 µM [4]: 101% | inhibition at 1 µM [5]: 80% | inhibition at 1 µM [6]: 11%

CCC1c2c(c3cc(Cl)ccc3n2CC(C)(O)c2ccc(F)cc2)CCN1C (stereo not drawn) [Compound 79]
inhibition at 1 µM [1]: 50% | inhibition at 1 µM [2]: 27% | inhibition at 1 µM [3]: 20% | inhibition at 1 µM [4]: 77% | inhibition at 1 µM [5]: 62% | inhibition at 1 µM [6]: 2%

Cc1ccc(CCn2c3c(c4cc(Cl)ccc42)CCN(C)C3C)cn1 (stereo not drawn) [Compound 80]
inhibition at 1 µM [1]: 66% | inhibition at 1 µM [2]: 23% | inhibition at 1 µM [3]: 18% | inhibition at 1 µM [4]: 79% | inhibition at 1 µM [5]: 56% | inhibition at 1 µM [6]: 5%

CC1c2c(c3cc(Cl)ccc3n2CCc2ccc(F)cc2)CCN1C (stereo not drawn) [Compound 81]
inhibition at 1 µM [1]: 80% | inhibition at 1 µM [2]: 96% | inhibition at 1 µM [3]: 67% | inhibition at 1 µM [4]: 88% | inhibition at 1 µM [5]: 93% | inhibition at 1 µM [6]: 21%
